Assay results published in patent US20080063642A1, “Methods of using (+)-1,4-dihydro-7-[(3S,4S)-3-methoxy-4-(methylamino)-1-pyrrolidinyl]-4-oxo-1-(2-thiazolyl)-1,8-naphthyridine-3-carboxylic acid for treatment of certain hematologic disorders” (priority 2006, published 2008).
Converted amounts (≈) assume the structure as drawn. Marks after values point to notes of the source that are not given here.

Experiments:
[1] = system: peripheral neutrophils, white blood cells, platelets; assay: Combination dosing SNS-595 and Ara-C (Example 5): peripheral cytology; format: in vivo, nu/nu mice
Experimental: At various time points described in Table 5, mice were euthanized by CO2 asphyxiation in accordance to Institutional Animal Care and Use Committee (IACUC) guidelines. Blood was collected through cardiac tap and transferred to EDTA tubes. The analysis of murine blood CBC and differential counts for samples in these tubes was conducted (at Quality Clinical Labs, Moutainview). Statistical significance was determined by one-tailed student t-test, using Welch's correction for unequal variances.

[2] = system: femoral bone marrow; assay: Combination dosing SNS-595 and Ara-C (Example 5): femoral bone marrow cellularity; format: in vivo, nu/nu mice
Excerpt: Femurs were harvested for histological evaluation. The femur was placed in Streck fixative, paraffin embedded, sectioned, transferred to slides, and H&E stained (at BioPathology Sciences). Immunohistochemical slides were processed and analyzed for percent cellularity of intact bone marrow.

[3] = Combination dosing SNS-595 and Ara-C (Example 5): body weight changes
Experimental: The effects of dosing were studied on changes in body weight, peripheral cytology, and femoral bone marrow cellularity over time as described below.
Before beginning the study, all animals were allowed to acclimatize for 3 days from shipping related stress and the health of the mice was assessed daily by observation. Purified water (reverse osmosis) and irradiated food (PicoLab Rodent Diet 20, #5053; Dean's Animal Feeds, San Carlos, Calif.) were provided ad libitum, and the animals were kept on a 12 hour light and dark cycle.

[4] = system: bone marrow; assay: Monotherapy and combination with Ara-C (Example 6): bone marrow total cellularity; format: in vivo, Female CD-1 mice; details: for Total Cellularity (Avg) Exp #1: two days after completion of treatment
Experimental: Blood was analyzed at Quality Control Labs (Mountain View, Calif.) for complete blood count and differential count. Bone marrow smears from femurs on Day 6 and Day 12 were prepared and geimsa stained for differential counts. Femurs were also placed in Streck fixative, processed, sectioned and H&E stained. Femur and bone marrow smears were analyzed at BioPathology Sciences (South San Francisco, Calif.) for total cellularity and differential count. […] The compounds were administered on Day 0 and Day 4.

[5] = in vivo; details: CD-1, mouse
[6] = system: CEM/C2 (camptothecan resistant derivative of CCRF-CEM); assay: MTT cell viability assay, CEM/C2; format: cell-based; details: Homo sapiens, MTT after 72 hours
Experimental: (§1) The following cell lines were used in this assay: HL-60 (promyelocytic leukemia); Jurkat (T cell leukemia); CCRF-CEM (lymphoblastic leukemia); CEM/C2 (camptothecan resistant derivative of CCRF-CEM).
(§2) Cells were seeded in 96 wells plates at 3000 cells per well and incubated for 16 hours. Compound dilutions were performed in DMSO from 10 mM with 3 fold dilutions. Titrations were diluted 1:100 in media to achieve final compound concentrations. The 96 well plates were aspirated and compound dilutions in media were added ([…]). MTT analysis was carried out after 72 hours of incubation at 37° C. Briefly, […] of MTT solution was added to each well. Cells were incubated at 37° C. for 1-2 hours. Cells were lysed with the addition of […] cell lysis buffer and MTT was solubilized overnight at 37° C. Plates were read on a spectromax machine with an absorbance measurement at […]. IC50's were calculated (data provided in Table 1) using regression analysis within GraphPad Prism.

[7] = system: CCRF-CEM (lymphoblastic leukemia); assay: MTT cell viability assay, CCRF-CEM; format: cell-based; details: Homo sapiens, MTT after 72 hours
Experimental: as §1, §2

[8] = system: CCRF-CEM acute lymphoblastic leukemia tumor; assay: CCRF-CEM xenograft model; format: in vivo
Experimental: CCRF-CEM acute lymphoblastic leukemia tumor lobes of 2-3 mm square were transplanted subcutaneously into nude mice. Tumors were allowed to grow to approximately 8-20 mm in diameter. […] Acceptable toxicity was defined as a mean group weight loss of 30% or less and not more than one toxic death among 6 treated animals. Anti-tumor activities of the drugs were assessed 20 or 21 days after the start of administration. FIGS. 1-2 and Table 2 provides data for tumor inhibition rate (IR) and survival ratio in the CCRF-CEM and LM3-Jck xenograft models.

[9] = system: HL-60 (promyelocytic leukemia); assay: MTT cell viability assay, HL-60; format: cell-based; details: Homo sapiens, MTT after 72 hours
Experimental: as §1, §2

[10] = system: LM3-Jck human malignant lymphoma tumor; assay: LM3-Jck xenograft model; format: in vivo; details: LM3-JcK
Experimental: LM3-Jck human malignant lymphoma tumor lobes (2-3 mm square) were transplanted subcutaneously into nude mice. Tumors were allowed to grow to approximately 7-14 mm in diameter. […] Acceptable toxicity was defined as a mean group weight loss of 30% or less and not more than one toxic death among 6 treated animals. Anti-tumor activities of the drugs were assessed 21 days after the start of administration.

[11] = Ara-C 20, 40 and 60 mg/kg tid q4d ×2
[12] = Group 5: Ara-C 20 mg/kg SC tid q4d × 2
[13] = Group 6: Ara-C 40 mg/kg SC tid q4d × 2
[14] = Group 7: Ara-C 60 mg/kg SC tid q4d × 2
[15] = CCRF-CEM, 100 mg/kg q4d × 3, IV

Structure (SMILES): Nc1ccn([C@@H]2O[C@H](CO)[C@@H](O)[C@@H]2O)c(=O)n1 [Ara-C, cytarabine]
- day of nadir of number of neutrophils ([1]; Ara-C 20 mg/kg tid q4d ×2): 6 days
- day of nadir of platelets ([1]; Ara-C 40 mg/kg tid q4d ×2): 8 days
- number of white blood cells versus vehicle group ([1]; Ara-C 60 mg/kg, day 8): significantly lower than the vehicle group
- circulating white blood cells, dose response [1, 11]: dose-dependent reduction
- day of nadir of platelets ([1]; Ara-C 20 and 60 mg/kg tid q4d ×2): 6 days
- day of nadir of number of neutrophils ([1]; Ara-C 40 and 60 mg/kg tid q4d ×2): 8 days
- day by which neutrophils returned to normal levels ([1]; Ara-C all dose levels): ≤ 12 days
- day by which platelets returned to normal levels ([1]; Ara-C all dose levels): ≤ 12 days
- recovery of white blood cells ([1]; Ara-C all dose levels): failed to return to normal levels by day 18
- number of platelets versus vehicle group ([1]; Ara-C all dose levels, day 6 and day 8): significantly lower than the vehicle group
- number of neutrophils versus vehicle group ([1]; Ara-C all dose levels, day 8): significantly lower than the vehicle group
- reduction in cellularity ([2]; Ara-C 20 mg/kg SC three times a day, single agent): 12%
- bone marrow cellularity, dose response ([2]; Ara-C single agent 20, 40, 60 mg/kg): No dose dependent reduction
- total cellularity, femur cross section of representative animal ([2]; Day 6, Ara-C 20 mg/kg tid q4d ×2 SC, Animal #83): 90%
- total cellularity, femur cross section of representative animal ([2]; Day 6, Ara-C 40 mg/kg tid q4d ×2 SC, Animal #103): 90%
- total cellularity, femur cross section of representative animal ([2]; Day 6, Ara-C 60 mg/kg tid q4d ×2 SC, Animal #122): 50%
- total cellularity, femur cross section of representative animal ([2]; Day 12, Ara-C 60 mg/kg tid q4d ×2 SC, Animal #134): 50%
- Average Total Cellularity Day 6 [2, 12]: 88%
- Average Total Cellularity Day 6 [2, 13]: 90%
- Average Total Cellularity Day 6 [2, 14]: 58%
- Average Total Cellularity Day 12 [2, 14]: 99%
- day of maximum body weight loss [3, 11]: 7 days
- maximum body weight loss [3, 11]: ≤ 2%
- % of Body Wt Nadir [3, 12]: −0.3%
- Day of Body Wt Nadir [3, 12]: 7 days
- % of Body Wt Nadir [3, 13]: 0%
- Day of Body Wt Nadir [3, 13]: 0 days
- % of Body Wt Nadir [3, 14]: −1.7%
- Day of Body Wt Nadir [3, 14]: 7 days
- Total Cellularity (Avg) Exp #2 ([4]; Ara-C 20 mg/kg tid q4d ×2): 92%
- Total Cellularity (Avg) Exp #1 ([4]; Ara-C 20 mg/kg tid q4d × 2): 88%
- Total Cellularity (Avg) Exp #2 ([4]; Ara-C 60 mg/kg tid q4d × 2): 54%
- Total Cellularity (Avg) Exp #1 ([4]; Ara-C 60 mg/kg tid q4d × 2): 58%
- MTD [5]: 60 mg/kg

Structure (SMILES): COc1cccc2c1C(=O)c1c(O)c3c(c(O)c1C2=O)C[C@@](O)(C(=O)CO)C[C@@H]3O[C@H]1C[C@H](N)[C@H](O)[C@H](C)O1 [Doxorubicin]
- IC50 [6]: 0.017 µg/mL (≈ 0.0313 µM)
- IC50 [7]: 0.003 µg/mL (≈ 0.00552 µM)
- IR (%) tumor inhibition rate ([8]; CCRF-CEM, 12 mg/kg q7d × 3, IV): 50.3* %
- IC50 [9]: 0.024 µg/mL (≈ 0.0442 µM)
- IR (%) tumor inhibition rate ([10]; 12 mg/kg q7d × 3, IV): 57.2* %

Structure (SMILES): COc1cc([C@@H]2c3cc4c(cc3[C@@H](O[C@@H]3O[C@@H]5CO[C@@H](C)O[C@H]5[C@H](O)[C@H]3O)[C@H]3COC(=O)[C@H]23)OCO4)cc(OC)c1O [Etoposide]
- IR (%) tumor inhibition rate ([8]; CCRF-CEM, 12 mg/kg qd × 5, IV): 28.3%
- Survival Ratio ([8]; nude, mouse, in vivo, iv, 12 mg/kg): 6/6
- IC50 [9]: 0.136 µg/mL (≈ 0.231 µM)
- IR (%) tumor inhibition rate ([10]; 12 mg/kg qd × 5, IV): 3.0%

Structure (SMILES): CCc1c2c(nc3ccc(OC(=O)N4CCC(N5CCCCC5)CC4)cc13)-c1cc3c(c(=O)n1C2)COC(=O)[C@]3(O)CC [Irinotecan]
- IC50 [6]: 44.4 µg/mL (≈ 75.7 µM)
- IC50 [7]: 0.479 µg/mL (≈ 0.816 µM)
- IR (%) tumor inhibition rate [8, 15]: 99.7* %
- Survival Ratio [8, 15]: 5/6
- IC50 [9]: 0.905 µg/mL (≈ 1.54 µM)
- IR (%) tumor inhibition rate ([10]; 100 mg/kg q4d × 3, IV): 97.7* %
- Survival Ratio ([10]; 100 mg/kg q4d × 3, IV): 6/6
